Source: ChEMBL document CHEMBL4152367, “Discovery of a Potent Thiazolidine Free Fatty Acid Receptor 2 Agonist with Favorable Pharmacokinetic Properties” (J Med Chem, 2018)
The source made the active and inactive calls. The calls are words filed in the database; no cut-off is given here.

Tests used:
[1] = AUC (0 to infinity) in Balb/c mouse at 5 mg/kg, ip by HPLC-MS/MS analysis; assay type: ADME, organism-based; set-up: dose 5 mg/kg, time infinity, route intraperitoneal; conditions: in vivo
[2] = Half life in Balb/c mouse at 5 mg/kg, ip by HPLC-MS/MS analysis; assay type: ADME, organism-based; conditions: in vivo
[3] = target: T1, Free fatty acid receptor 2 (Homo sapiens) (UniProt O15552); assay: Agonist activity at human FFA2R expressed in Flp-InT-REx 293 cells assessed as reduction of forskolin-induced cAMP production up to 30 uM after 30 mins by TR-FRET assay relative to control; assay type: functional, cell-based
T1 sequence (whole entry): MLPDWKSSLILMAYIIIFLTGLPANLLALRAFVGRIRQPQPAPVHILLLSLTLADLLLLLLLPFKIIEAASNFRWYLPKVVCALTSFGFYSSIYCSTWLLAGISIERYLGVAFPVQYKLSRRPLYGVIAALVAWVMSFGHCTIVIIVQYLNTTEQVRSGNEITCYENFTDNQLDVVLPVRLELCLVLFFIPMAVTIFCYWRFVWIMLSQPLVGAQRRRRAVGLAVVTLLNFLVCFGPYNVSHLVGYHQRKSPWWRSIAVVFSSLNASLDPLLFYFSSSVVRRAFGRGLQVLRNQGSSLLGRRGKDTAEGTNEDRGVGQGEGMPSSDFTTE

[4] = target: T1, Free fatty acid receptor 2 (Homo sapiens); assay: Agonist activity to human FFA2R expressed in HEK293T cells assessed as induction beta-arrestin-2 recruitment up to 30 uM after 10 mins by BRET assay relative control; assay type: functional, cell-based
[5] = target: T2, Free fatty acid receptor 2 (Mus musculus, UniProt Q8VCK6); assay: Agonist activity at FFA2R in mouse mature adipocytes assessed as inhibition of isoproterenol-induced glycerol production
T2 sequence (Q8VCK6 whole entry): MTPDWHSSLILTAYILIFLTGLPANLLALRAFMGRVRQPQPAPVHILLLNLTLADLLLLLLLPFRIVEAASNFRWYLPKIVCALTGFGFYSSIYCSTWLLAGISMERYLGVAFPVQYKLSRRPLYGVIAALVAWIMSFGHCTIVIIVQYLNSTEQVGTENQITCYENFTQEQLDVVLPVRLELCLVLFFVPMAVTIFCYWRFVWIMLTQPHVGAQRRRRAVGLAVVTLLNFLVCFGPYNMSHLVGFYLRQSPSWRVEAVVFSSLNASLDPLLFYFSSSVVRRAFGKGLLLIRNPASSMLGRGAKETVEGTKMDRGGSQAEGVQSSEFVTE

[6] = target: T1, Free fatty acid receptor 2 (Homo sapiens); assay: Agonist activity to human FFA2R expressed in HEK293T cells assessed as induction beta-arrestin-2 recruitment at 100 uM after 10 mins by BRET assay relative to control; assay type: functional, cell-based

Row | Activity [3] | Activity [4] | Structure (SMILES) | also measured
1 |  |  | COc1ccccc1-c1ccc(C(=O)N2[C@@H](c3ccccc3Cl)CC[C@H]2C(=O)O)cc1 | AUC(0-inf) [1]: 417 ng·h/mL; half-life [2]: 50 min
2 | inactive |  | Cc1noc(C)c1-c1ccc(C(=O)N2[C@@H](c3ccccn3)SC[C@H]2C(=O)O)cc1 | 
3 | inactive | inactive | O=C(O)[C@@H]1CS[C@H](c2ccccc2Cl)N1C(=O)c1ccccc1 | 
4 | inactive | inactive | COc1ccccc1-c1ccc(C(=O)N2[C@H](C(=O)O)CO[C@@H]2C(C)(C)C)cc1 | 
5 |  |  | CCC(=O)O [PROPIONIC ACID] | EC50 [5]: 251 µM
6 | inactive |  | COc1ccccc1-c1ccc(C(=O)N2[C@H](C(=O)O)CS[C@@H]2C(C)(C)C)cc1 | Activity [6]: 50%
